We go through 23 compounds from patent publication US11220504B2, “Pyrrolo[3,2-d] pyrimidine derivatives for the treatment of viral infections and other diseases” (JANSSEN SCIENCES IRELAND UNLIMITED COMPANY, priority 2012, dated 2022).

Bounds are passed on as bounds.

The target in one assay is T1, human TLR7 (Homo sapiens, UniProt Q9NYK1).
T1 construct: expressed in transfected cells; host or cells: HEK293 cells, transient transfection with CMV-TLR7 plasmid and NFκB-luc plasmid
T1 sequence (Q9NYK1 27-1049): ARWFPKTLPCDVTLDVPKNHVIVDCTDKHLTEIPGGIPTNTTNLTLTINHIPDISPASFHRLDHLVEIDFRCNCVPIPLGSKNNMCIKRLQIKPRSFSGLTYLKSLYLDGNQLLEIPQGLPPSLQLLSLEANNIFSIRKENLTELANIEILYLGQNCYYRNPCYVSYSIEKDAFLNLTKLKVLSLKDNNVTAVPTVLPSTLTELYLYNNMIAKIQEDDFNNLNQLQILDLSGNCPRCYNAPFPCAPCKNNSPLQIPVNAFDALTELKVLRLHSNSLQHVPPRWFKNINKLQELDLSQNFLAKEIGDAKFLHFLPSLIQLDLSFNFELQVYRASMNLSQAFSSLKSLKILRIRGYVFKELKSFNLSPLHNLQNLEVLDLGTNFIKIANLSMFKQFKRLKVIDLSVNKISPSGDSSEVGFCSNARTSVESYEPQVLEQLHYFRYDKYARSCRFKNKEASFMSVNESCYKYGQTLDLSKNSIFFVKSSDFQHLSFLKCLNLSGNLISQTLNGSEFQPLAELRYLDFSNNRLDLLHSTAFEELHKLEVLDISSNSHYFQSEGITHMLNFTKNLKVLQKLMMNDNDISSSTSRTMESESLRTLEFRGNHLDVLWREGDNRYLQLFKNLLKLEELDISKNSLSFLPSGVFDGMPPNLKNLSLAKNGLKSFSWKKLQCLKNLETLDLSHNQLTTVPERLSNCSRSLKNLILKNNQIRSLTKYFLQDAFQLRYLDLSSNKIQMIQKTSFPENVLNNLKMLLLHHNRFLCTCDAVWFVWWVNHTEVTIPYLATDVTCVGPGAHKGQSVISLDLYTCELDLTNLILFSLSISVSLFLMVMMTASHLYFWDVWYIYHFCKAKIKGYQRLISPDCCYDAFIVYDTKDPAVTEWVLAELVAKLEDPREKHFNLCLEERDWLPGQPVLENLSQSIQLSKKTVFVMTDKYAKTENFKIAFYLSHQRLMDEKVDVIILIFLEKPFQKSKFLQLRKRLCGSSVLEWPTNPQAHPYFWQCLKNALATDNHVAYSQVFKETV
In words: TLR7 cellular reporter assay (HEK293, NFκB-luc). Type of assay: cell-based. Conditions: HEK293 cells transfected with CMV-TLR7 and NFκB-luc, 6 hours incubation; lowest effective concentration. Here is the method:
(§1) The ability of compounds to activate human TLR7 and/or TLR8 was assessed in a cellular reporter assay using HEK293 cells transiently transfected with a TLR7 or TLR8 expression vector and NFκB-luc reporter construct.
(§2) Briefly, HEK293 cells were grown in culture medium (DMEM supplemented with 10% FCS and 2 mM Glutamine). […] Thirty microliters of cells were then dispensed into each well in 384-well plates, where 10 μL of compound in 4% DMSO was already present. Following 6 hours incubation at 37° C., 5% CO2, the luciferase activity was determined by adding 15 μL of Steady Lite Plus substrate (Perkin Elmer) to each well and readout performed on a ViewLux ultraHTS microplate imager (Perkin Elmer). Dose response curves were generated from measurements performed in quadruplicates.
(A reporter such as luciferase makes a cellular process visible.)

The target of a further assay is T2, human TLR8 (Homo sapiens, UniProt Q9NR97).
T2 construct: expressed in transfected cells; host or cells: HEK293 cells, transient transfection with TLR8 plasmid and NFκB-luc plasmid
T2 sequence (Q9NR97 27-1041): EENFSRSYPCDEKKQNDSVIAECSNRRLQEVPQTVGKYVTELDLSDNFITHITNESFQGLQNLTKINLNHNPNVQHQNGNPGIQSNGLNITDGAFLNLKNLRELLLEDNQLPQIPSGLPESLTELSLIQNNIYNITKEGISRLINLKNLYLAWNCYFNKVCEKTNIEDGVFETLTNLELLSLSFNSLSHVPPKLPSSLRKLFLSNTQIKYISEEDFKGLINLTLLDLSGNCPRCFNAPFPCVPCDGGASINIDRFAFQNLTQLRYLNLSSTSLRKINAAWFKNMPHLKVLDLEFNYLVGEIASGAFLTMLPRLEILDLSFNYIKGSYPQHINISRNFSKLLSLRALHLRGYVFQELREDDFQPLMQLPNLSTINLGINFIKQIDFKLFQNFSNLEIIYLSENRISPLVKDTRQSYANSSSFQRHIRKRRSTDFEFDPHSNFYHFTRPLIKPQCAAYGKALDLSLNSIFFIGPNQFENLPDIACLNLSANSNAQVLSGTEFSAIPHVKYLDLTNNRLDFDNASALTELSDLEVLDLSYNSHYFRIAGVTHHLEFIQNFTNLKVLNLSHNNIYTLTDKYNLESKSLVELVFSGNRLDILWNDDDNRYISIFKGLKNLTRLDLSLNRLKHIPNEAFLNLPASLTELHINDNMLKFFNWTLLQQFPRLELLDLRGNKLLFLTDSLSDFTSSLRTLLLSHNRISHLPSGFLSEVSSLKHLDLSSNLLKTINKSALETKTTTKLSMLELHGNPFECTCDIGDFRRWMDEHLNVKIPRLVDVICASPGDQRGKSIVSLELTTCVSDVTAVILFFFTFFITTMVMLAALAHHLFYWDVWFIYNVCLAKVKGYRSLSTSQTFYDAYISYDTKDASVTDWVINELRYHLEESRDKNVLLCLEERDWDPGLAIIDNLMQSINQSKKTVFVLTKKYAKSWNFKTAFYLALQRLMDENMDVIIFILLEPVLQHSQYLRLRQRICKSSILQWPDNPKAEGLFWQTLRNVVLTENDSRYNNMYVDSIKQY
The experiment in a line: TLR8 cellular reporter assay (HEK293, NFκB-luc). Type of assay: cell-based. Conditions: HEK293 cells transfected with CMV-TLR8 and NFκB-luc, 6 hours incubation; lowest effective concentration. Here is the method: as §1, §2

Assay [1] deals with interferon-stimulated responsive elements (ISRE). The experiment in a line: Activation of ISRE promoter elements by conditioned media from PBMC (HEK-ISREluc). Type of assay: cell-based, human. Conditions: Homo sapiens; conditioned media from PBMC transferred to HEK-ISREluc cells, 24 hours; lowest effective concentration; read-out: PBMC LEC. The procedure:
The potential of compounds to induce IFN-I was also evaluated by measuring the activation of interferon-stimulated responsive elements (ISRE) by conditioned media from PBMC. The ISRE element of sequence […] (SEQ. ID NO:1) is highly responsive to the STAT1-STAT2-IRF 9 transcription factor, activated upon binding of IFN-I to their receptor IFNAR (Clontech, PT3372-5W). […] A HEK293 cell line stably transfected with pISRE-Luc (HEK-ISREluc) was established to profile of the conditioned PBMC cell culture media.
Briefly, PBMCs were prepared from buffy coats of at least two donors using a standard Ficoll centrifugation protocol. Isolated PBMCs were resuspended in RPMI medium supplemented with 10% human AB serum and 2×10^5 cells/well were dispensed into 384-well plates containing compounds (70 μL total volume). After overnight incubation, 10 μL of supernatant was transferred to 384-well plates containing 5×10^3 HEK-ISREluc cells/well in 30 μL (plated the day before). Following 24 hours of incubation, activation of the ISRE elements was measured by assaying luciferase activity using 40 μL/well Steady Lite Plus substrate (Perkin Elmer) and measured with ViewLux ultraHTS microplate imager (Perkin Elmer). The stimulating activity of each compound on the HEK-ISREluc cells was reported as LEC value, defined as the compound concentration applied to the PBMCs resulting in a luciferase activity at least two fold above the standard deviation of the assay. The LEC in turn indicates the degree of ISRE activation on transfer of a defined amount of PBMC culture medium. Recombinant interferon α-2a (Roferon-A) was used as a standard control compound.

On to `CCC[C@@H](CO)Nc1nc(N)nc2ccn(CC(C)C)c12` [Compound 27], for which the “TLR7 LEC” value on human TLR7 is 0.15 µM. For the same compound, the “TLR8 LEC” value at human TLR8 was determined as 0.85 µM. For the same compound, the minimal effective concentration in assay [1] was found to be 0.17 µM.
The matching figures for `CCCC[C@@H](CCO)Nc1nc(N)nc2ccn(CC(C)C)c12` [Compound 28]: 0.11 µM, 1.1 µM and 0.03 µM.
The matching figures for `CCCCCNc1nc(N)nc2ccn(Cc3ccccc3)c12` [Compound 29]: 0.15 µM, over 25 µM and 0.04 µM.
Taken in the same sequence, the figures for `CCC[C@@H](CCO)Nc1nc(N)nc2ccn(CC(C)C)c12` [Compound 30] were 0.16 µM, 0.67 µM and 0.05 µM.
With `CCC[C@H](CO)Nc1nc(N)nc2ccn(Cc3ccccc3)c12` [Compound 31], the “TLR7 LEC” value on human TLR7 amounted to 0.22 µM. In addition, the “TLR8 LEC” value at human TLR8 was over 25 µM. Besides, the minimal effective concentration in assay [1] came out at 0.16 µM.
Taken in the same sequence, the figures for `CC(C)CNc1nc(N)nc2ccn(Cc3ccccc3)c12` [Compound 32] were 0.91 µM, over 25 µM and 0.52 µM.
Taken in the same sequence, the figures for `CCCC(C)Nc1nc(N)nc2ccn(Cc3ccccc3)c12` (stereo not drawn) [Compound 33] were 0.03 µM, over 25 µM and 0.04 µM.
Taken in the same sequence, the figures for `COCCNc1nc(N)nc2ccn(Cc3ccccc3)c12` [Compound 34] were 0.91 µM, over 25 µM and 0.54 µM.
Regarding `CCNc1nc(N)nc2ccn(Cc3ccccc3)c12` [Compound 35], on human TLR7, the “TLR7 LEC” value turned out to be 1.49 µM. Besides, the “TLR8 LEC” value at human TLR8 was over 25 µM. Further, the minimal effective concentration in assay [1] was determined as 0.7 µM.
Consider `Nc1nc(NCCCO)c2c(ccn2Cc2ccccc2)n1` [Compound 36], for which the “TLR7 LEC” value at human TLR7 worked out at 1.06 µM. Moreover, the “TLR8 LEC” value on human TLR8 is over 25 µM. The minimal effective concentration in assay [1] was 0.59 µM.
The matching figures for `CCCC[C@@H](CCO)Nc1nc(N)nc2ccn(Cc3ccccc3)c12` [Compound 37]: 0.005 µM, over 25 µM and 0.007 µM.
The matching figures for `CC[C@H](C)[C@@H](CO)Nc1nc(N)nc2ccn(Cc3ccccc3)c12` [Compound 38]: 0.54 µM, over 25 µM and 0.63 µM.
Take `CCC[C@@H](CCO)Nc1nc(N)nc2ccn(Cc3ccncc3)c12` [Compound 39]: the “TLR7 LEC” value at human TLR7 turned out to be 0.17 µM. Moreover, the “TLR8 LEC” value on human TLR8 was over 25 µM. For the same compound, the minimal effective concentration in assay [1] worked out at 0.009 µM.
Taken in the same sequence, the figures for `CCCC[C@@H](CCO)Nc1nc(N)nc2ccn(Cc3ccncc3)c12` [Compound 40] were 0.12 µM, 24.61 µM and 0.004 µM.
Regarding `CCCCNc1nc(N)nc2ccn(Cc3ccc(OC)cc3)c12` [Compound 41], at human TLR7, the “TLR7 LEC” value turned out to be 0.09 µM. For the same compound, the “TLR8 LEC” value at human TLR8 is over 25 µM. In assay [1], the minimal effective concentration worked out at 0.11 µM.
Turning to `CCCCNc1nc(N)nc2ccn(Cc3ccc(F)cc3)c12` [Compound 42], the “TLR7 LEC” value on human TLR7 came to 0.28 µM. The “TLR8 LEC” value on human TLR8 is over 25 µM. The minimal effective concentration in assay [1] came to 0.16 µM.
The matching figures for `CCCCNc1nc(N)nc2ccn(Cc3ccccc3F)c12` [Compound 43]: 0.11 µM, over 25 µM and 0.17 µM.
Taken in the same sequence, the figures for `CC(CNc1nc(N)nc2ccn(Cc3ccccc3)c12)C1CC1` (stereo not drawn) [Compound 44] were 1.51 µM, over 25 µM and 2.45 µM.
The matching figures for `Nc1nc(NCc2ccoc2)c2c(ccn2Cc2ccccc2)n1` [Compound 45]: 19.9 µM, over 25 µM and 0.74 µM.
Take `CC1CC1CNc1nc(N)nc2ccn(Cc3ccccc3)c12` (stereo not drawn) [Compound 46]: the “TLR7 LEC” value on human TLR7 turned out to be 0.83 µM. In addition, the “TLR8 LEC” value at human TLR8 was over 25 µM. Further, in assay [1], the minimal effective concentration amounted to 0.17 µM.
Taken in the same sequence, the figures for `CC(C)=CCNc1nc(N)nc2ccn(Cc3ccccc3)c12` [Compound 47] were 17.5 µM, over 25 µM and 1.79 µM.
Consider `Cc1cc(CNc2nc(N)nc3ccn(Cc4ccccc4)c23)no1` [Compound 48], for which, on human TLR7, the “TLR7 LEC” value was determined as 0.05 µM. Besides, on human TLR8, the “TLR8 LEC” value was over 25 µM. Moreover, the minimal effective concentration in assay [1] was determined as 0.03 µM.
`Cn1ccc(CNc2nc(N)nc3ccn(Cc4ccccc4)c23)n1` [Compound 49]: on human TLR7, the “TLR7 LEC” value is 22.43 µM. Also, the “TLR8 LEC” value at human TLR8 was over 25 µM. Besides, the minimal effective concentration in assay [1] came out at 2.34 µM.
